Values of other authors as cited in patent publication US20220168408A1, “MULTI-VALENT IMMUNOTHERAPY COMPOSITION AND METHODS OF USE FOR TREATING WT1-POSITIVE CANCERS” (SLSG LIMITED LLC, priority 2019, published 2022).

System: CD4+ and CD8+ responses
Conditions: according to data from preclinical and phase 1 studies

SGQAYMFPNAPYLPSCLES (Mutated Homo sapiens) [WT1-122A1 long]
stimulation of CD4+ and CD8+ responses: stimulate both CD4+ and CD8+ responses
